Assay [1] concerns kochia. Description: Test C postemergence. The settings on record: Postemergence, 1000 g ai/ha, 10 days, visual 0 to 100 scale (0 no effect, 100 complete control). In kind it is in vivo, Bassia scoparia. The source says: (§1) Seeds of plant species selected from barnyardgrass (Echinochloa crusgalli), blackgrass (Alopecurus myosuroides), corn (Zea mays), foxtail, giant (giant foxtail, Setaria faberi), green foxtail (Setaria viridis), goosegrass (Eleusine indica), kochia (Bassia scoparia), oat, wild (wild oat, Avena fatua), pigweed, palmer (palmer amaranth, palmer pigweed, Amaranthus palmeri), Pigweed, Redroot (redroot pigweed, Amaranthus retroflexus), ragweed (common ragweed, Ambrosia artemisiifolia), ryegrass, Italian ([…] ryegrass, Lolium multiflorum), soybean (Glycine max), and wheat (Triticum aestivum) were planted into a blend of loam soil and sand and treated preemergence with a directed soil spray using test chemicals formulated in a non-phytotoxic solvent mixture which included a surfactant. At the same time, plants selected from these crops and weed species and also galium (catchweed bedstraw, Galium aparine) and horseweed (Erigeron canadensis) were planted in pots containing the same blend of loam soil and sand and treated with postemergence applications of test chemicals formulated in the same manner. Plants ranged in height from 2 to 10 cm and were in the one- to two-leaf stage for the postemergence treatment. Treated plants and untreated controls were maintained in a greenhouse for 10 days, after which time all treated plants were compared to untreated controls and visually evaluated for injury. Plant response ratings, summarized in Table C, are based on a 0 to 100 scale where 0 is no effect and 100 is complete control. A dash (-) response means no test result.

Assay [2] concerns ragweed. As to the kind of experiment: Test C preemergence. In kind it is in vivo, Ambrosia artemisiifolia. The settings on record: Preemergence, 1000 g ai/ha; visual rating after 10 days, 0 to 100 scale (0 no effect, 100 complete control).
Description: as §1

Assay [3] has as its system ragweed. Description: Test C postemergence. In kind it is in vivo, Ambrosia artemisiifolia. The settings on record: Postemergence, 1000 g ai/ha, 10 days, visual 0 to 100 scale (0 no effect, 100 complete control).
Description: as §1

Assay [4] deals with pigweed, palmer. Description: Test C postemergence. The settings on record: Postemergence, 1000 g ai/ha, 10 days, visual 0 to 100 scale (0 no effect, 100 complete control). In kind it is in vivo, Amaranthus palmeri.
Description: as §1

In assay [5] the test system is barnyardgrass. Description: Test C preemergence. In kind it is in vivo, Echinochloa crusgalli. The settings on record: Preemergence, 1000 g ai/ha; visual rating after 10 days, 0 to 100 scale (0 no effect, 100 complete control).
Description: as §1

A further assay relates to horseweed. As to the kind of experiment: Test C postemergence. In kind it is in vivo, Erigeron canadensis. Conditions: Postemergence, 1000 g ai/ha, 10 days, visual 0 to 100 scale (0 no effect, 100 complete control).
Description: as §1

The subject of assay [6] is green foxtail. As to the kind of experiment: Test C preemergence. In kind it is in vivo, Setaria viridis. Conditions: Preemergence, 1000 g ai/ha; visual rating after 10 days, 0 to 100 scale (0 no effect, 100 complete control).
Description: as §1

In assay [7] the test system is ryegrass, Italian. Description: Test C preemergence. In kind it is in vivo, Lolium multiflorum. The settings on record: Preemergence, 1000 g ai/ha; visual rating after 10 days, 0 to 100 scale (0 no effect, 100 complete control).
Description: as §1

The test system of assay [8] is blackgrass. Description: Test C postemergence. In kind it is in vivo, Alopecurus myosuroides. The settings on record: Postemergence, 1000 g ai/ha, 10 days, visual 0 to 100 scale (0 no effect, 100 complete control).
Description: as §1

Assay [9] deals with barnyardgrass. As to the kind of experiment: Test C postemergence. Conditions: Postemergence, 1000 g ai/ha. In kind it is in vivo, Echinochloa crusgalli.
Description: as §1

Assay [10] concerns blackgrass. As to the kind of experiment: Test C preemergence. In kind it is in vivo, Alopecurus myosuroides. The settings on record: Preemergence, 1000 g ai/ha; visual rating after 10 days, 0 to 100 scale (0 no effect, 100 complete control).
Description: as §1

Assay [11] concerns green foxtail. Description: Test C postemergence. Conditions: Postemergence, 1000 g ai/ha, 10 days, visual 0 to 100 scale (0 no effect, 100 complete control). In kind it is in vivo, Setaria viridis.
Description: as §1

Assay [12] relates to ryegrass, Italian. Description: Test C postemergence. In kind it is in vivo, Lolium multiflorum. The settings on record: Postemergence, 1000 g ai/ha, 10 days, visual 0 to 100 scale (0 no effect, 100 complete control).
Description: as §1

In assay [13] the test system is kochia. As to the kind of experiment: Test C preemergence. The settings on record: Preemergence, 1000 g ai/ha; visual rating after 10 days, 0 to 100 scale (0 no effect, 100 complete control). In kind it is in vivo, Bassia scoparia.
Description: as §1

In a further assay the test system is galium. Description: Test C postemergence. Conditions: Postemergence, 1000 g ai/ha, 10 days, visual 0 to 100 scale (0 no effect, 100 complete control). In kind it is in vivo, Galium aparine.
Description: as §1

Assay [14] deals with pigweed, palmer. Description: Test C preemergence. In kind it is in vivo, Amaranthus palmeri. The settings on record: Preemergence, 1000 g ai/ha; visual rating after 10 days, 0 to 100 scale (0 no effect, 100 complete control).
Description: as §1

The mark [15] stands for this setting: 0 to 100 scale, 0 no effect, 100 complete control.

Take `Cc1cccc2c1O[C@@H](C)CN2C(=O)c1cccc(-n2cncc2Br)c1` [Compound 297]: the “Plant response rating, Kochia” value amounted to 30 with kochia [1] and 0 in the assay with kochia [13]. Also, the “Plant response rating, Ragweed” value with ragweed [2] and with ragweed [3] was 0 each time. Also, the “Plant response rating, Pigweed, Palmer” value in the assay on pigweed, palmer [4] was found to be 0; in the assay on pigweed, palmer [14], 0. The “Plant response rating, Barnyardgrass” value is 0 with barnyardgrass [5] and 0 with barnyardgrass [9] (10 days, visual 0 to 100 scale (0 no effect, 100 complete control)). Also, in the assay on horseweed, the “Plant response rating, Horseweed” value is recorded as 20. Besides, the “Plant response rating, Foxtail, Green” value in the assay with green foxtail [6] and in the assay with green foxtail [11] was 0 each time. In addition, the “Plant response rating, Ryegrass, Italian” value in the assay on ryegrass, Italian [7] is 0; in the assay with ryegrass, Italian [12], 0. Also, the “Plant response rating, Blackgrass” value in the assay with blackgrass [8] and in the assay on blackgrass [10] was 0 in each case. Further, the “Plant response rating, Galium” value in the assay on galium is reported as 0.

For the compound `Cc1cccc2c1O[C@@H](C)CN2C(=O)c1cccc(-c2cn(C)nn2)c1` [Compound 247], the “Plant response rating, Kochia” value with kochia [1] and in the assay on kochia [13] was 0 in each case. Also, the “Plant response rating, Ragweed” value in the assay on ragweed [2] and with ragweed [3] was 0 throughout. For the same compound, the “Plant response rating, Pigweed, Palmer” value in the assay on pigweed, palmer [4] is on record as 10. Besides, the “Plant response rating, Barnyardgrass” value is 0 in the assay with barnyardgrass [5] and 10 in the assay with barnyardgrass [9] (setting [15]). In addition, the “Plant response rating, Horseweed” value with horseweed is given as 20. Also, the “Plant response rating, Foxtail, Green” value in the assay with green foxtail [6] was 0; in the assay on green foxtail [11], 30. Also, the “Plant response rating, Ryegrass, Italian” value was found to be 30 in the assay with ryegrass, Italian [7] and 0 in the assay on ryegrass, Italian [12]. Further, the “Plant response rating, Blackgrass” value in the assay with blackgrass [8] and with blackgrass [10] was 0 each time. Moreover, the “Plant response rating, Galium” value in the assay on galium turned out to be 20.

Take `C[C@H]1CN(C(=O)c2cccc(-n3cccc3)c2)c2cccc(Cl)c2O1` [Compound 222]: the “Plant response rating, Kochia” value came to 60 with kochia [1] and 20 with kochia [13]. Also, the “Plant response rating, Ragweed” value in the assay on ragweed [2] and in the assay on ragweed [3] was 0 throughout. For the same compound, the “Plant response rating, Pigweed, Palmer” value in the assay with pigweed, palmer [4] is recorded as 60; in the assay with pigweed, palmer [14], 50. The figures for the “Plant response rating, Barnyardgrass” value in the assay on barnyardgrass [5] and in the assay on barnyardgrass [9] (setting [15]) were 50 and 20, respectively. The “Plant response rating, Horseweed” value in the assay on horseweed is on record as 0. Also, the “Plant response rating, Foxtail, Green” value in the assay on green foxtail [6] was 100; with green foxtail [11] it was 40. In addition, the “Plant response rating, Ryegrass, Italian” value came to 70 in the assay with ryegrass, Italian [7] and 50 in the assay with ryegrass, Italian [12]. Besides, the “Plant response rating, Blackgrass” value in the assay on blackgrass [8] came out at 50; with blackgrass [10], 70.
